According to patent publication US12336991B2, “Factor XIIA inhibitors” (UNIVERSITY OF LEEDS, priority 2018, dated 2025):

Legend:
Type in all cases: biochemical
FXIIa = biological target: T1, FXIIa (Homo sapiens, UniProt P00748); experiment: Determination of Factor XIIa inhibition, chromogenic substrate S-2302 assay; conditions: human FXIIa alpha
T1 sequence (P00748 373-615 limits assumed): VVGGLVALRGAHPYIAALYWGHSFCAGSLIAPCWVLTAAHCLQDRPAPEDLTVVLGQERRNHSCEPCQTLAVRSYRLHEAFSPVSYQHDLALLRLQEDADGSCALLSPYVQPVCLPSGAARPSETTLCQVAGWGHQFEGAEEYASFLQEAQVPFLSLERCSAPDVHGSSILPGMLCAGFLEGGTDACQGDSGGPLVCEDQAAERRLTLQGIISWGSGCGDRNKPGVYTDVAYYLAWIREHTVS
T1 sequence (P00748 20-372 partner limits assumed): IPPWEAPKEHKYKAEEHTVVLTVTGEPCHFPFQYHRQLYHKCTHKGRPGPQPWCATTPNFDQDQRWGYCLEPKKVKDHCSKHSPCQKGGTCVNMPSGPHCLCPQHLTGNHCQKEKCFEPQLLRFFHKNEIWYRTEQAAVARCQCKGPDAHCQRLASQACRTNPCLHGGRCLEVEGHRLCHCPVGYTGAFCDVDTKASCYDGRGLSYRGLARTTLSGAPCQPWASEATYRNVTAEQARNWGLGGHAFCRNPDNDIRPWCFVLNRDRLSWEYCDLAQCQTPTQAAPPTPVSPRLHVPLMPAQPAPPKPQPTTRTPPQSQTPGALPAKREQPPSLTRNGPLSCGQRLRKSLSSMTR
Experimental: (§1) The activities of the compounds of the invention have been determined in vitro using the following assays protocols for the screening of activity of FXIIa and other proteases. Each of these assays were performed in a purified system employing the use of chromogenic assays in microplate plate wells. Chromogenic peptide substrates mimicking natural protein substrates are attached via an amide bond to a chromogenic group. Paranitroaniline (pNA) is released from the peptide following catalyses by the proteolytic enzyme; the absorbance increases and can be monitored at 405 nm.
(§2) All compounds were dissolved in 100% (v/v) DMSO to a stock concentration of 10 mM, the highest concentration of compound used in each assay is 500 μM. The final concentrations of DMSO were 5% (v/v) in 50 mM Tris 137 mM NaC pH 7.4. Where no test compound was added a final concentration of 5% DMSO was employed.
Determination of Factor XIa Inhibition
Factor XIa activity was measured using a chromogenic substrate S-2302 (Chromogenix). Various concentrations of compound were incubated with 10 nM of FXIIa and incubated at 37° C. for 10 minutes in 50 mM Tris, 137 mM NaCl, pH 7.4, prior to the addition of a final concentration of 450 µM S-2302 chromogenic substrate. Kinetic readings at 405 nm were monitored every 12 secs for a total duration of 3 hours at 37° C. Gradients of initial rates were determined and employed to calculate IC50 values. Values of IC50 were converted to Ki values based on the formula: Ki=IC50/(1+[Substrate]/Km).
The activity of the compounds of the invention has been categorised based on the Ki values, the categories being “*”, “**” and “***”. […] The category “**” refers to compounds with a Ki value of 0.2 μM to 2 μM.

thrombin = biological target: T2, thrombin (Homo sapiens, UniProt P00734); experiment: Determination of selectivity: thrombin inhibition, chromogenic substrate GPR assay; conditions: fold selectivity for FXIIa over thrombin
T2 construct: FXa (5 nM) and thrombin (5 nM)
Experimental: as §1, §2
(§3) Determination of Selectivity
(§4) To determine selectivity of test compounds, these test compounds were assayed for inhibitory activity against other serine proteases including FXa and thrombin. Essentially compounds at increasing concentrations were incubated with each enzyme: FXa (5 nM) and thrombin (5 nM), for 10 mins at 37° C. followed the appropriate chromogenic substrate, S2765 ([…]), and GPR ([…]) respectively in 50 mM Tris, 137 mM NaCl, pH 7.4. Chromogenic substrates S2765 was from Chromogenix, and GPR from Bachem. Kinetic readings at 405 nm were monitored every 12 secs for a total duration of 3 hours at 37° C. Gradients of initial rates were determined and employed to calculate IC50 values. Values of IC50 were converted to Ki values based on the formula: Ki=IC50/(1+[Substrate]/Km)
(§5) Where [Substrate] denotes the concentration of substrate used in the assay and Km is the determined value of each enzyme with its own substrate.
(§6) The fold selectivity for FXIIa over thrombin for the compounds of the invention has been categorised based on the fold selectivity values, the categories being “+”, “++” and “+++”. The category “+” refers to fold selectivity values less than 10. The category “++” refers to a fold selectivity value of 10 to 100. The category “+++” refers to fold selectivity values greater than 100.

FXa = FXa (Homo sapiens, UniProt P00742); experiment: Determination of selectivity: FXa inhibition, chromogenic substrate S2765 assay; conditions: fold selectivity for FXIIa over FXa
Experimental: as §1, §2, §3, §4, §5, §6
The fold selectivity for FXIIa over FXa for the compounds of the invention has been categorised based on the fold selectivity values, the categories being “o”, “oo” and “ooo”. The category “o” refers to fold selectivity values less than 10. The category “oo” refers to a fold selectivity value of 10 to 100. The category “ooo” refers to fold selectivity values greater than 100.

FXa, sequence (P00742 235-488 limits assumed): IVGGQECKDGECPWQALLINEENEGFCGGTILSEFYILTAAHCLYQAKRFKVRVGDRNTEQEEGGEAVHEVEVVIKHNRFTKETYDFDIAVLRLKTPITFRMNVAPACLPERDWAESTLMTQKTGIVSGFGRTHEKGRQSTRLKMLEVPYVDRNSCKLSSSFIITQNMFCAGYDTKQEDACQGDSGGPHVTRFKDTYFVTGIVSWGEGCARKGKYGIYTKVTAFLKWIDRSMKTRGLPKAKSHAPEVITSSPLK
FXa, sequence (P00742 41-179 partner limits assumed): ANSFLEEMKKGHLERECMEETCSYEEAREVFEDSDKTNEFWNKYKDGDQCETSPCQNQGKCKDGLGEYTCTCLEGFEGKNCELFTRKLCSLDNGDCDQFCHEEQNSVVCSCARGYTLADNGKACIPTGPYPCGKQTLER

Ki (FXIIa) [µM] | Thrombin (human)/FXIIa alpha (human) (thrombin) | FXa (human)/FXIIa alpha (human) (FXa) | SMILES
> 2 | ++ (fold selectivity value of 10 to 100) | ∘∘ | COc1ccc(C[C@@H]2C[C@@H](C(=O)NCc3ccc4c(c3)nnn4C)N(C(=O)[C@H]3C[C@@H](Oc4ccccc4)CN3)C2)cc1 [Example M05351]
0.2 to 2 | ++ (fold selectivity value of 10 to 100) | ∘∘ | Cn1nnc2cc(CNC(=O)[C@@H]3C[C@@H](Cc4ccc(C(F)(F)F)cc4)CN3C(=O)[C@H]3C[C@@H](c4ccccc4)CN3)ccc21 [Example M05334]
0.2 to 2 | ++ (fold selectivity value of 10 to 100) | ∘∘∘ | Cn1nnc2cc(CNC(=O)[C@@H]3C[C@@H](Cc4ccc(S(C)(=O)=O)cc4)CN3C(=O)[C@H]3C[C@@H](c4ccccc4)CN3)ccc21 [Example M05372]
> 2 | ++ (fold selectivity value of 10 to 100) | ∘∘ | Cn1nnc2cc(CNC(=O)[C@@H]3C[C@@H](Cc4cccc(Cl)c4)CN3C(=O)[C@H]3C[C@@H](c4ccccc4)CN3)ccc21 [Example M05335]
> 2 | ++ (fold selectivity value of 10 to 100) | ∘∘ | Cn1nnc2cc(CNC(=O)[C@@H]3C[C@@H](Cc4ccc(-c5cn[nH]c5)cc4)CN3C(=O)[C@H]3C[C@@H](c4ccccc4)CN3)ccc21 [Example M05364]
0.2 to 2 | ++ (fold selectivity value of 10 to 100) | ∘∘∘ | Cn1nnc2cc(CNC(=O)[C@@H]3C[C@@H](Cc4ccc5c(c4)OCO5)CN3C(=O)[C@H]3C[C@@H](c4ccccc4)CN3)ccc21 [Example M05390]
> 2 | ++ (fold selectivity value of 10 to 100) | ∘∘ | COc1ccc(C[C@@H]2C[C@@H](C(=O)NCc3ccc4c(c3)nnn4C)N(C(=O)[C@H]3CC(c4cn[nH]c4)CN3)C2)cc1 (stereo partly drawn) [Example M05454]
> 2 | ++ (fold selectivity value of 10 to 100) | ∘∘ | Cn1nnc2cc(CNC(=O)[C@@H]3C[C@H](NC4CCCCC4)CN3C(=O)[C@H](N)CCc3ccccc3)ccc21 [Example M05203]
0.2 to 2 | ++ (fold selectivity value of 10 to 100) | ∘∘∘ | COc1ccc(C[C@@H]2C[C@@H](C(=O)NCc3ccc4c(c3)nnn4C)N(C(=O)[C@H](N)CC3CCCc4ccccc43)C2)cc1 (stereo partly drawn) [Example M05413]
> 2 | ++ (fold selectivity value of 10 to 100) | ∘∘ | Cn1nnc2cc(CNC(=O)[C@@H]3C[C@@](O)(c4ccccc4)CN3C(=O)[C@H](N)CCc3ccccc3)ccc21 [Example M05126]
> 2 | ++ (fold selectivity value of 10 to 100) | ∘∘ | Cn1nnc2cc(CNC(=O)[C@@H]3C[C@@H](c4ccccc4)CN3C(=O)[C@H](N)CCc3ccccc3)ccc21 [Example M05119, (2S,4S)-1-((R)-2-Amino-4-phenyl-butyryl)-4-phenyl-pyrrolidine-2-carboxylic acid (1-methyl-1H-benzotriazol-5-ylmethyl)-amide]

Second part, the molecule before the results:

SMILES | Ki (FXIIa) [µM] | Thrombin (human)/FXIIa alpha (human) (thrombin) | FXa (human)/FXIIa alpha (human) (FXa)
COc1ccc(C[C@@H]2C[C@@H](C(=O)NCc3ccc4c(c3)nnn4C)N(C(=O)[C@H](N)CCC(=O)N3CC[C@H](F)C3)C2)cc1 [Example M05400] | < 0.2 | +++ (fold selectivity values greater than 100) | ∘∘∘
Cn1nnc2cc(CNC(=O)[C@@H]3C[C@@H](Cc4ccncc4)CN3C(=O)[C@@H](CCC(=O)N3CCCC3)NCC(F)(F)F)ccc21 [Example M05271] | > 2 | ++ (fold selectivity value of 10 to 100) | ∘∘
COc1ccc(C[C@@H]2C[C@@H](C(=O)NCc3ccc4c(c3)nnn4C)N(C(=O)[C@H](N)CCC(=O)N3C4CCC3C(=O)NC4)C2)cc1 (stereo partly drawn) [Example M05460] | 0.2 to 2 | +++ (fold selectivity values greater than 100) | ∘∘∘
COc1ccc(C[C@@H]2C[C@@H](C(=O)NCc3ccc4c(c3)nnn4C)N(C(=O)[C@H]3CC(c4ccccc4F)CN3)C2)cc1 (stereo partly drawn) [Example M05377] | 0.2 to 2 | +++ (fold selectivity values greater than 100) | ∘∘∘
N[C@H](CCC(=O)N1CCCC1)C(=O)N1C[C@H](Cc2ccc(C(F)(F)F)cc2)C[C@H]1C(=O)NCc1cc2cnccc2[nH]1 [Example M00969] | < 0.2 | +++ (fold selectivity values greater than 100) | ∘∘∘
COc1ccc(C[C@@H]2C[C@@H](C(=O)NCc3ccc4c(c3)nnn4C)N(C(=O)[C@H]3C[C@@H](c4cccnc4)CN3)C2)cc1 [Example M05354] | 0.2 to 2 | +++ (fold selectivity values greater than 100) | ∘∘∘
COc1ccc(C[C@@H]2C[C@@H](C(=O)NCc3cc4ccncc4[nH]3)N(C(=O)[C@H](N)CCC(=O)N3CCCC3)C2)cc1 [Example M00952] | < 0.2 | +++ (fold selectivity values greater than 100) | ∘∘∘
COc1cc(CNC(=O)[C@@H]2C[C@H](c3ccccc3)CN2C(=O)[C@H](N)CCc2ccccc2)ccc1CN [Example M05068] | 0.2 to 2 | ++ (fold selectivity value of 10 to 100) | ∘∘∘
Cn1nnc2cc(CNC(=O)[C@@H]3C[C@@H](Cc4ccncc4)CN3C(=O)[C@@H](CCC(=O)N3CCCC3)NCC(F)F)ccc21 [Example M05269] | > 2 | ++ (fold selectivity value of 10 to 100) | ∘∘
COc1cc(CNC(=O)[C@@H]2CCCN2C(=O)[C@H](N)CCc2ccccc2)cnc1CN [Example M05053] | > 2 | + (fold selectivity values less than 10) | ∘∘
COc1ccc(C[C@@H]2C[C@@H](C(=O)NCc3ccc4c(c3)nnn4C)N(C(=O)[C@H](N)CCC(=O)N3CCNC(=O)C3)C2)cc1 [Example M05451] | < 0.2 | +++ (fold selectivity values greater than 100) | ∘∘∘
COc1ccc(C[C@@H]2C[C@@H](C(=O)NCc3ccc4c(c3)nnn4C)N(C(=O)[C@H](N)CCC(=O)N3CCNCC3)C2)cc1 [Example M05393] | 0.2 to 2 | +++ (fold selectivity values greater than 100) | ∘∘∘
